{
  "source": "paper PMC12040169",
  "about": "(PLOS Biology, 2025)",
  "data": [
    {"experiment": "in vitro", "settings": "human, hela cells, % viability", "units": {"viability at 28.5 h, 10 µM": "%"}, "values": [
      {"smiles": "CC(=O)N1C[C@@H](N(C)C)[C@H](c2cn(C)c3ccccc23)C1", "note": "[CBK285007]", "viability at 28.5 h, 10 µM": 99.5},
      {"smiles": "CC(=O)Nc1ccc(S(=O)(=O)Nc2nnc(C(C)(C)C)s2)cc1", "note": "[CBK045499]", "viability at 28.5 h, 10 µM": 100},
      {"smiles": "O=C(c1ccsc1NS(=O)(=O)c1cc(Cl)sc1Cl)N1CCOCC1", "note": "[CBK042288]", "viability at 28.5 h, 10 µM": 92.5},
      {"smiles": "COC(=O)c1ccc2c(=O)n(CC3CCCO3)c(SCCO)nc2c1", "note": "(stereo not drawn) [CBK306041]", "viability at 28.5 h, 10 µM": 109},
      {"smiles": "CCC(CN1CCN(C)CC1)NC(=O)C1(c2cccc(F)c2)CC1", "note": "(stereo not drawn) [CBK282786]", "viability at 28.5 h, 10 µM": 110},
      {"smiles": "CC(C)(C)OC(=O)N1CCC(N(CCCO)Cc2ccccn2)CC1", "note": "[CBK304246]", "viability at 28.5 h, 10 µM": 95.1},
      {"smiles": "Cn1cnnc1SCc1nc(N)nc(Nc2ccccc2)n1", "note": "[CBK018022]", "viability at 28.5 h, 10 µM": 106},
      {"smiles": "Cc1ccc(CNC(=O)OCCN2CCN(C)CC2)o1", "note": "[CBK200205]", "viability at 28.5 h, 10 µM": 112},
      {"smiles": "CCN1CCN(C(=O)c2c(-c3ccccc3)noc2C)CC1", "note": "[CBK200251]", "viability at 28.5 h, 10 µM": 96.5},
      {"smiles": "O=C(CCn1ccc2ccncc21)NCCc1c[nH]c2ccccc12", "note": "[CBK284760]", "viability at 28.5 h, 10 µM": 99},
      {"smiles": "CCOC(=O)C1=NN(C)c2cnn(Cc3ccc(Cl)cc3)c(=O)c2C1C(=O)CC(C)C", "note": "(stereo not drawn) [CBK021389]", "viability at 28.5 h, 10 µM": 91.9},
      {"smiles": "COc1ccc(-c2cnc3[nH]c(=O)n([C@@H](CO)C(C)C)c3n2)c(OC)c1OC", "note": "[CBK064774]", "viability at 28.5 h, 10 µM": 94.3},
      {"smiles": "CC(=O)Nc1ccc(-c2ccc(C(=O)NCc3ccc(C(C)C)cc3)cn2)cc1", "note": "[CBK158857]", "viability at 28.5 h, 10 µM": 101},
      {"smiles": "OC(CSc1ccccc1)CN1CCC(Nc2nccc(C(F)(F)F)n2)CC1", "note": "(stereo not drawn) [CBK074648]", "viability at 28.5 h, 10 µM": 94.5},
      {"smiles": "Cc1nnc(SCC(=O)Nc2nonc2C)s1", "note": "[CBK269227]", "viability at 28.5 h, 10 µM": 98.9},
      {"smiles": "CC(=O)NCCc1nc2ccc(NC(=O)Cn3nc(C)c4ccccc4c3=O)cc2n1C", "note": "[CBK268249]", "viability at 28.5 h, 10 µM": 111},
      {"smiles": "CS(=O)(=O)N(CC(=O)N1CCN(Cc2ccc3c(c2)OCO3)CC1)c1cccc(F)c1", "note": "[CBK074572]", "viability at 28.5 h, 10 µM": 102},
      {"smiles": "O=C(CC1(C(F)(F)F)NCCN1)c1cccc([N+](=O)[O-])c1", "note": "[CBK263443]", "viability at 28.5 h, 10 µM": 83.1},
      {"smiles": "CCn1c(SCC(=O)Nc2ccc(C(C)=O)cc2)nnc1-c1cc(Br)ccc1O", "note": "[CBK268515]", "viability at 28.5 h, 10 µM": 89.2},
      {"smiles": "COc1cc(C(=O)N2CCC3(CC2)CC(=O)c2cc(CN4CCN(C)CC4)ccc2O3)cc(OC)c1C", "note": "[CBK169185]", "viability at 28.5 h, 10 µM": 94.6},
      {"smiles": "CCOC(=O)CC(=O)CSc1nc(-c2cccnc2)ccc1C#N", "note": "[CBK267456]", "viability at 28.5 h, 10 µM": 89.6},
      {"smiles": "O[C@H]1[C@H](NCc2ccccn2)[C@H]2CO[C@H](O2)[C@@H]1N1CCC(Cc2ccccc2)CC1", "note": "[CBK288814]", "viability at 28.5 h, 10 µM": 87.2},
      {"smiles": "Fc1ccc(CNc2c(-c3cccs3)nc3cnccn23)cc1", "note": "[CBK283487]", "viability at 28.5 h, 10 µM": 112},
      {"smiles": "CC(Nc1cc(N2CCN(CCO)CC2)ccc1[N+](=O)[O-])c1ccccc1", "note": "(stereo not drawn) [CBK033838]", "viability at 28.5 h, 10 µM": 106},
      {"smiles": "C[S+]([O-])CCNC(=O)c1cnn(-c2ccc(F)cc2)c1", "note": "(stereo not drawn) [CBK283245]", "viability at 28.5 h, 10 µM": 89.1},
      {"smiles": "CS(=O)(=O)N1CCCCCC1c1cc(-c2ccc(F)cc2)no1", "note": "(stereo not drawn) [CBK284669]", "viability at 28.5 h, 10 µM": 91.8},
      {"smiles": "O=C(/C=C(O)/C(O)=C/C(=O)c1ccc(Cl)cc1)c1ccc(Cl)cc1", "note": "[CBK261428]", "viability at 28.5 h, 10 µM": 102},
      {"smiles": "CC(=O)NCCn1cc2c(n1)[C@H]1CN(C(=O)C(C)C)C[C@H]1CC2", "note": "[CBK284571]", "viability at 28.5 h, 10 µM": 93.3},
      {"smiles": "CCc1nc2c(OCc3ccccc3)cccn2c1N(C)C(=O)c1ccncc1", "note": "[CBK147876]", "viability at 28.5 h, 10 µM": 90},
      {"smiles": "CC1CC(Nc2ccccc2)c2ccccc2N1C(=O)CCCC(=O)O", "note": "(stereo not drawn) [CBK286960]", "viability at 28.5 h, 10 µM": 89.3},
      {"smiles": "COc1ccccc1OCCn1c(=N)n(CC(N)=O)c2ccccc21", "note": "[CBK268822C]", "viability at 28.5 h, 10 µM": 88.6},
      {"smiles": "CCN(CC)C(=O)c1[nH]c2ccccc2c1NS(=O)(=O)c1cc(Br)ccc1OC", "note": "[CBK050113]", "viability at 28.5 h, 10 µM": 92.6},
      {"smiles": "Cc1ccc(CSc2nnc(-c3ccc(NC(=O)/C=C/c4ccccc4)cc3)n2C)cc1", "note": "[CBK263850]", "viability at 28.5 h, 10 µM": 90.4},
      {"smiles": "COc1ccc2[nH]c3c(c2c1)CCNC31CCCN(CCc2ccc(F)cc2)C1", "note": "(stereo not drawn) [CBK039246]", "viability at 28.5 h, 10 µM": 90.9},
      {"smiles": "CC(C)OCc1ccc(C(=O)N2CCC(C(=O)O)CC2)cc1", "note": "[CBK297141]", "viability at 28.5 h, 10 µM": 83.2},
      {"smiles": "CN(C)Cc1ccccc1C(O)c1ccccc1", "note": "(stereo not drawn) [CBK261277]", "viability at 28.5 h, 10 µM": 94.4},
      {"smiles": "O=C(CN1CCN(S(=O)(=O)N2CCCCC2)CC1)Nc1ccc(Br)cc1", "note": "[CBK269515]", "viability at 28.5 h, 10 µM": 91.7},
      {"smiles": "O=C(Cc1csc(-c2ccc(F)cc2)n1)Nc1ccc(F)cc1", "note": "[CBK295177]", "viability at 28.5 h, 10 µM": 82.3},
      {"smiles": "c1ccc2sc(-c3cc(Nc4ccc5[nH]ccc5c4)ncn3)cc2c1", "note": "[CBK090858]", "viability at 28.5 h, 10 µM": 82.5},
      {"smiles": "CC(C)Nc1cc(SCCc2ccccn2)ncn1", "note": "[CBK105617]", "viability at 28.5 h, 10 µM": 97.8},
      {"smiles": "O=C(Nc1cccc(C(F)(F)F)c1)N[C@H]1[C@H](O)[C@@H](Oc2ccccc2)[C@@H]2OC[C@H]1O2", "note": "[CBK288811]", "viability at 28.5 h, 10 µM": 106},
      {"smiles": "CCn1nnc2c(=O)n(CC(=O)Nc3ccccc3)cnc21", "note": "[CBK287828]", "viability at 28.5 h, 10 µM": 85.5},
      {"smiles": "CCCc1nnc2sc(C3CCC(=O)N(C(C)C)C3)nn12", "note": "(stereo not drawn) [CBK306942]", "viability at 28.5 h, 10 µM": 108},
      {"smiles": "CCN1c2ccc(-c3cncn3CCCn3ccnc3C)cc2CC1C", "note": "(stereo not drawn) [CBK281924]", "viability at 28.5 h, 10 µM": 90.7},
      {"smiles": "Cc1cc(C)nc(NC(=O)OCCc2ccncc2)c1", "note": "[CBK138233]", "viability at 28.5 h, 10 µM": 93.9},
      {"smiles": "CC(=O)Nc1ccc(Nc2ncnc3c2cnn3-c2ccc(C)cc2C)cc1", "note": "[CBK265803]", "viability at 28.5 h, 10 µM": 116},
      {"smiles": "CC1Cc2ccccc2N1C(=O)C1C2C=CC(O2)C1C(=O)O", "note": "(stereo not drawn) [CBK286891]", "viability at 28.5 h, 10 µM": 86.9},
      {"smiles": "Cn1cc(C(=O)N2CCc3nc(-c4ccccc4F)sc3C2)cn1", "note": "[CBK281914]", "viability at 28.5 h, 10 µM": 89},
      {"smiles": "COc1ccc(Nc2nc(-c3sc(C)nc3C)cs2)c(OC)c1", "note": "[CBK267170]", "viability at 28.5 h, 10 µM": 46.5},
      {"smiles": "CCCc1nnc2sc(C3CCC(=O)N(CC(C)C)C3)nn12", "note": "(stereo not drawn) [CBK307207]", "viability at 28.5 h, 10 µM": 95.6},
      {"smiles": "O=C(COC(=O)c1cc(S(=O)(=O)N2CCCCC2)c(Cl)cc1Cl)c1ccccc1", "note": "[CBK261668]", "viability at 28.5 h, 10 µM": 101},
      {"smiles": "CS(=O)(=O)Nc1cc(-c2noc([C@@H]3CCCN3Cc3ccc(S(C)(=O)=O)cc3)n2)ccn1", "note": "[CBK288890]", "viability at 28.5 h, 10 µM": 90.7},
      {"smiles": "Cn1cc(C2CCCCCN2C(=O)c2ccc(F)cc2)cn1", "note": "(stereo not drawn) [CBK284913]", "viability at 28.5 h, 10 µM": 76.8},
      {"smiles": "CCCc1nc(C(=O)N2Cc3cnn(Cc4ccc(F)cc4)c3C2)cs1", "note": "[CBK307249]", "viability at 28.5 h, 10 µM": 86},
      {"smiles": "Nc1ncc(-c2ccsc2)nc1-c1ccc(O)cc1", "note": "[CBK115631]", "viability at 28.5 h, 10 µM": 100},
      {"smiles": "O=P(O)(COc1ccccc1)COc1ccccc1", "note": "[CBK261620]", "viability at 28.5 h, 10 µM": 88.8},
      {"smiles": "CC[C@H]1CN(C(=O)Nc2cccc(C(F)(F)F)c2)CC[C@H]1CC(=O)O", "note": "[CBK288776]", "viability at 28.5 h, 10 µM": 89.3},
      {"smiles": "CCCS(=O)(=O)NC[C@H]1C[C@@H]2CCN1C[C@@H]2c1cc(-c2cccs2)nn1C", "note": "[CBK289101]", "viability at 28.5 h, 10 µM": 98.4},
      {"smiles": "O=C(O)CCC(=O)Nc1ccc(C(=O)O)cc1", "note": "[CBK260952]", "viability at 28.5 h, 10 µM": 96.6},
      {"smiles": "Cc1noc(C)c1C(=O)NC1Cc2ccccc2C1", "note": "[CBK200350]", "viability at 28.5 h, 10 µM": 91.4},
      {"smiles": "C/C(=N/OCC(=O)N/N=C/c1sc2ccccc2c1O)c1ccccc1", "note": "[CBK262266]", "viability at 28.5 h, 10 µM": 96.3},
      {"smiles": "COc1cc(-c2cnc(N)c(N3CCC(C(=O)O)CC3)n2)cc(OC)c1OC", "note": "[CBK063365]", "viability at 28.5 h, 10 µM": 98.9},
      {"smiles": "Cc1cccc(CC(=O)N2CCC(Cc3ccccc3-c3ccccc3)(C(N)=O)CC2)c1", "note": "[CBK285731]", "viability at 28.5 h, 10 µM": 103}
    ]}
  ]
}
